Patent US11311543B2, “Compositions and methods for inhibiting PTPN22” (YALE UNIVERSITY, priority 2016, dated 2022)

Assays:
[1] = tested on: B cells isolated from humanized mice; test: Calcium flux after BCR triggering in B cells isolated from humanized mice (flow cytometry); type: in vivo, humanized NSG mouse; details: anti-IgM F(ab′)2 25 μg/mL
Method: (§1) FIG. 40A depicts the phosphorylation of SHIP1, Lyn and ERK1/2 in total cell lysates of Ramos B cells treated or not with the PTPN22 inhibitor LTV-1 (5 μg/mL) for the indicated times. The cells were subjected to immunoblot analysis of P-LYN P-SHIP1, P-ERK1/2, and β-ACTIN. FIG. 40B depicts flow cytometry analysis of calcium flux of Ramos B cells treated or not with the PTPN22 inhibitor LTV-1 (5 μg/mL) for the indicated times followed by stimulation with anti-IgM F(ab′)2 at the indicated concentrations. FIG. 40C depicts flow cytometry analysis of calcium flux of splenocyte cells treated or not with LTV-1 (0.75 mg) twice daily for 7 days and stimulated with anti-IgM F(ab′)2 (25 μg/mL). FIG. 40D depicts flow cytometry analysis of calcium flux of splenocyte expressing PTPN22 shRNA and stimulated with anti-IgM F(ab′)2 (25 μg/mL).
(§2) However, downstream ERK phosphorylation was not affected by PTPN22 inhibition (FIG. 40A). Since PTPN22 inhibition enhanced TCR signaling in Jurkat cell line, it was investigated if PTPN22 blockade may also increase BCR signaling and calcium flux induced by BCR triggering was measured in RAMOS cells in the presence or not of LTV-1. Calcium flux was increased by PTPN22 inhibition, especially at lower concentration of BCR triggering agent (FIG. 40B). […]

[2] = tested on: RAMOS cells; test: Calcium flux induced by BCR triggering in RAMOS cells (flow cytometry); type: cell-based, human; details: LTV-1 5 μg/mL, anti-IgM F(ab′)2, especially at lower concentration of BCR triggering agent
Method: as §1, §2

[3] = tested on: new emigrant/transitional B cells; test: Frequencies of autoreactive new emigrant/transitional B cells (central B cell tolerance) in humanized NSG mice engrafted with PTPN22 C/T or T/T HSCs; type: in vivo, NSG mice engrafted with human HSCs
Method: FIG. 7, comprising FIG. 7A through FIG. 7C depicts results of experiments showing inhibition of PTPN22 enzymatic activity resets central B cell tolerance. FIG. 7A depicts a schematic diagram depicting the PTPN22 inhibitor treatment strategy. NSG mice generated with CD34+ HSCs carrying PTPN22 T allele(s) were injected twice daily with 0.75 mg or 0.15 mg of PTPN22 inhibitor for one week. FIG. 7B depicts the frequencies of polyreactive new emigrant B cells from NSG mice carrying PTPN22 T allele(s) and treated with the PTPN22 inhibitor were determined and compared to those of non-treated NSG mice. […] For each B-cell fraction, the frequency of reactive (filled area) and non-reactive (open area) clones is summarized in pie charts with the total number of clones tested indicated in the center. In summarized reactivity panels on the right, each dot represents an untreated mouse and full and half-filled diamonds mice treated with either 0.75 or 0.15 mg of LTV-1 PTPN22 inhibitor, respectively. Averages are shown with a bar. FIG. 7C depicts the frequencies of HEp-2 reactive new emigrant B cells from NSG mice carrying PTPN22 T allele(s) and treated with the PTPN22 inhibitor were determined and compared to those of non-treated NSG mice. […] For each B-cell fraction, the frequency of reactive (filled area) and non-reactive (open area) clones is summarized in pie charts with the total number of clones tested indicated in the center. In summarized reactivity panels on the right, each dot represents an untreated mouse and full and half-filled diamonds mice treated with either 0.75 or 0.15 mg of LTV-1 PTPN22 inhibitor, respectively. Averages are shown with a bar.
Human CD34^+ cells were purified from fetal liver samples by density gradient centrifugation followed by positive immunomagnetic selection with anti-human CD34 microbeads (Miltenyi). Newborn NSG mice (within first 3 days of life) were sublethally irradiated (X-ray irradiation with X-RAD 320 irradiator at 180 cGy) and 100,000-150,000 CD34^+ cells in 20 μL of PBS were injected into the liver with a 22-gauge needle (Hamilton Company). Mice were used for experiments 10-12 weeks after transplantation. NSG mice treated with the PTPN22 inhibitor were injected twice daily i.p. with 0.75 mg or 0.15 mg of PTPN22 inhibitor for a week.
The pTRIP-Ubi-GFP lentiviral vector has been used for overexpression of PTPN22 variants and short hairpin RNA (shRNA) delivery. Vector constructions have been described previously (Cantaert et al., 2015, Immunity 43:884-95; Ruer-Laventie et al., 2015, Immun Inflamm Dis 3:265-79). The following sequence are used for human PTPN22 targeting: shRNA1 5′-[…]-3′ (SEQ ID NO: 1), shRNA2 5′-CTGTTGCCAACATCCTCTA-3′(SEQ ID NO: 3), or shRNA3 5′-AAGAATCCACCTGACTTCC-3′(SEQ ID NO: 2). Lentiviral particles were produced by transient transfection of 293T cells, as previously described (Schickel et al., 2012, EMBO Mol Med 4:1261-75). Viruses were then used to transduce CD34^+ HSCs in the presence of protamine sulfate (Sigma).
B cells were enriched from splenocytes using magnetic separation with CD19 microbeads (Miltenyi Biotech) and stained with CD19-Pacific Blue, CD10-PE-Cy7, CD21-APC and IgM-biotin (all from Biolegend) prior to purification. Single CD19^+CD10^+CD21^lowGFP^− or GFP^+ new emigrant B cells were sorted on a FACSAria (BD Biosciences) into 96-well PCR plates and immediately frozen on dry ice. […]

[4] = GFP+ shRNA+ PTPN22 C/T or T/T new emigrant/transitional B cells vs GFP- counterparts

Compound | calcium flux in B cells isolated from treated humanized mice ([1]; LTV-1 0.75 mg twice daily for 7 days, vs non-treated) | calcium flux induced by BCR triggering [2] | frequencies of HEp-2 reactive new emigrant/transitional B cells ([3]; PTPN22 C/T or T/T engrafted NSG mice, 0.75 mg LTV-1 i.p. twice daily for a week) | frequencies of polyreactive new emigrant/transitional B cells ([3]; PTPN22 C/T or T/T engrafted NSG mice, 0.75 mg LTV-1 i.p. twice daily for a week, vs non-treated) | anti-nuclear clone frequencies ([3]; PTPN22 C/T or T/T engrafted NSG mice, LTV-1 twice daily for a week) | calcium flux after BCR triggering in GFP+ shRNA-expressing B cells ([1]; GFP+ vs GFP- B cells from humanized NSG mouse) | production of HEp-2 reactive clones [3, 4] | production of polyreactive clones [3, 4]
Cc1ccccc1N1C(=O)/C(=C/c2ccc(OCc3cccc(C(=O)O)c3)cc2)C(=O)NC1=S [LTV-1] | enhanced | increased | normalized | significantly reduced | remained very low | – | – | –
shRNA #1: shRNA targeting human PTPN22, 5′-CTAGTGCTCTTGGTGTATATT-3′, delivered by GFP-tagged lentivirus | – | – | – | – | – | increased calcium flux | significantly reduced | significantly reduced
